Ki, Emax and EC50 data for 4 compounds are collected here from patent US20230265151A1, “GIP/GLP1 CO-AGONIST COMPOUNDS” (priority 2020, published 2023).

pKi: −log10 of the molar value. Read-outs that look alike come from different tables or passages of the source.

The target in assay [1] is T1, human GIP receptor (hGIPR) (Homo sapiens, UniProt P48546).
T1 construct: expressed in transfected cells; crude membranes
T1 sequence (P48546 22-466): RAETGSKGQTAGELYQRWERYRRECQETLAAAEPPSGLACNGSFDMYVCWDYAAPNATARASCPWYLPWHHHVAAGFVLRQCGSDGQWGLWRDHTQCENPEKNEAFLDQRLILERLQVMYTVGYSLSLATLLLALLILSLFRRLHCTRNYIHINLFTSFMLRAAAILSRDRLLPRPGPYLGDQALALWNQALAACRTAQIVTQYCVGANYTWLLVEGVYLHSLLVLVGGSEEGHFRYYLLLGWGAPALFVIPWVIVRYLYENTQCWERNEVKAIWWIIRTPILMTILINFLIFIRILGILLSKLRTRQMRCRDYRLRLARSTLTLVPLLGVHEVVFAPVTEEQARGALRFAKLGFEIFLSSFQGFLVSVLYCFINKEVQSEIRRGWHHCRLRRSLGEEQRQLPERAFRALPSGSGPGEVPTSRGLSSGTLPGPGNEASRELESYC
The experiment in a line: [125I]-GIP binding, SPA with membranes of CHO cells expressing hGIPR.

Assay [2] deals with T2, hGIPR (Homo sapiens, UniProt P48546).
T2 construct: expressed in transfected cells
T2 sequence (P48546 22-466): T1 sequence (P48546 22-466)
The experiment in a line: Functional cAMP formation (HTRF) in HEK-293 clonal cells expressing hGIPR, 0.1% bovine casein, without or with 1.0% human serum albumin. The following applies: for Emax: percent of maximal response to GIP(1-42)NH2; for EC50: geometric mean. It is filed as cell-based. The procedure, abridged: (§1)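 Readings of the HTRF 665/620 nm ratio, which falls as cAMP rises, were converted to nM cAMP using a standard curve after 30 min peptide exposure at 37° C.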

Assay [3] has as its target T3, hGCGR (Homo sapiens, UniProt P47871).
T3 construct: expressed in transfected cells
Put plainly: Functional cAMP formation (HTRF) in HEK-293 clonal cells expressing hGCGR, 0.1% bovine casein, without or with 1.0% human serum albumin. It is filed as cell-based. The procedure, abridged:
as §1

Assay [4] concerns the target hGLP-1R (Homo sapiens, UniProt P43220). The experiment in a line: Functional cAMP formation (HTRF) in HEK-293 clonal cells expressing hGLP-1R, 0.1% bovine casein, without or with 1.0% human serum albumin. It is filed as cell-based. Further details: expressed in transfected cells. The conditions noted are these: for Emax: HEK293, read-out: hGLP-1R Emax, % ± SEM, cAMP, 37° C., 0.1% bovine casein, percent of maximal response to GLP-1(7-36)NH2, arithmetic mean; for EC50: geometric mean. The method, boiled down:
as §1

Where [5] appears, read: HEK293, read-out: hGIPR Emax, % ± SEM, cAMP, 37° C., 0.1% bovine casein and 1.0% human serum albumin.
Setting [6] is: hGIPR EC50, nM (SEM, n), cAMP, 37° C., 0.1% bovine casein (no human serum albumin).
The mark [7] stands for this setting: hGCGR EC50, nM (SEM, n), cAMP, 37° C., 0.1% bovine casein (no human serum albumin), geometric mean.
[8] abbreviates: hGCGR EC50, nM (SEM, n), cAMP, 37° C., 0.1% bovine casein and 1.0% human serum albumin, geometric mean (SEM, n).
The mark [9] stands for this setting: hGLP-1R EC50, nM (SEM, n), cAMP, 37° C., 0.1% bovine casein (no human serum albumin).

Sequence of hGLP-1R (P43220 24-463): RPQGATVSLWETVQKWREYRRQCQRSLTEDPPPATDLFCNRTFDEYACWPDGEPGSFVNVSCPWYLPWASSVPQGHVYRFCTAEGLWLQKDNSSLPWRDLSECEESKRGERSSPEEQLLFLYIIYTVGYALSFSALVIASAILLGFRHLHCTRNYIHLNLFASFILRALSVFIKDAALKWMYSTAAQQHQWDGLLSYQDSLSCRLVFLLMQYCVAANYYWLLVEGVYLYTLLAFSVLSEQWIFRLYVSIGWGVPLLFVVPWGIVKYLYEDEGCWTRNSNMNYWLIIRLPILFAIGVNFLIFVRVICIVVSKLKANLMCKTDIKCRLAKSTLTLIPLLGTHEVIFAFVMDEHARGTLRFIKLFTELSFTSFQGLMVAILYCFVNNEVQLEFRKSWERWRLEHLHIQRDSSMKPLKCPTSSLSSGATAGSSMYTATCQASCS
T3 sequence (P47871 26-477): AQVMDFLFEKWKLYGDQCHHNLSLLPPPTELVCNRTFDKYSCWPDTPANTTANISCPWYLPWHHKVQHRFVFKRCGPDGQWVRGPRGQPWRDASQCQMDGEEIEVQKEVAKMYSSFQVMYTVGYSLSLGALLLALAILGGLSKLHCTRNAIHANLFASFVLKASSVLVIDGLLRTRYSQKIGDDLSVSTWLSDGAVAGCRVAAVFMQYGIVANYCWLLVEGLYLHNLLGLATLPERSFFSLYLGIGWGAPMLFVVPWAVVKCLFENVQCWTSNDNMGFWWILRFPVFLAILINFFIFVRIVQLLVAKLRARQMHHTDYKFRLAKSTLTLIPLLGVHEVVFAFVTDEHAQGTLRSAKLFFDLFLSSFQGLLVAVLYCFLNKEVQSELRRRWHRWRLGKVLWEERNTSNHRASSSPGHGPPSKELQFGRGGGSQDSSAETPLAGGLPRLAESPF

The compound `CC[C@H](C)[C@H](NC(=O)[C@H](CC(C)C)NC(=O)[C@](C)(Cc1ccc(O)cc1)NC(=O)[C@H](CCCCNC(=O)COCCOCCNC(=O)COCCOCCNC(=O)COCCOCCNC(=O)CC[C@H](NC(=O)CCCCCCCCCOc1ccc(C(=O)O)cc1)C(=O)O)NC(=O)[C@@H](NC(=O)[C@H](Cc1ccccc1)NC(=O)[C@H](CCC(=O)O)NC(=O)C(C)(C)NC(=O)[C@H](CCC(N)=O)NC(=O)[C@H](C)NC(=O)[C@H](CCC(N)=O)NC(=O)[C@H](CCCN)NC(=O)[C@H](CC(=O)O)NC(=O)[C@H](CC(C)C)NC(=O)[C@](C)(CC(C)C)NC(=O)[C@@H](NC(=O)C(C)(C)NC(=O)[C@H](Cc1ccncc1)NC(=O)[C@H](CC(=O)O)NC(=O)[C@H](CO)NC(=O)[C@@H](NC(=O)[C@](C)(Cc1ccccc1F)NC(=O)[C@@H](NC(=O)CNC(=O)[C@H](CCC(=O)O)NC(=O)C(C)(C)NC(=O)[C@@H](N)Cc1ccc(O)cc1)[C@@H](C)O)[C@@H](C)O)[C@@H](C)CC)[C@@H](C)CC)C(=O)N[C@@H](CCCCNC(=O)COCCOCCNC(=O)COCCOCCNC(=O)COCCOCCNC(=O)CC[C@H](NC(=O)CCCCCCCCCOc1ccc(C(=O)O)cc1)C(=O)O)C(=O)NCC(=O)NCC(=O)N1CCC[C@H]1C(=O)N[C@@H](CO)C(=O)N[C@@H](CO)C(=O)NCC(=O)N[C@@H](C)C(=O)N1CCC[C@H]1C(=O)N1CCC[C@H]1C(=O)N1CCC[C@H]1C(=O)N[C@@H](CO)C(N)=O` [Example 464] showed a pKi in assay [1] of 10.58. Besides, the maximal effect (Emax) in assay [2] (setting [5]) turned out to be 95.5%; in assay [4], 114%. For the same compound, the EC50 in assay [2] (setting [6]) was 0.00955 nM; in assay [3] (setting [7]), greater than 10100 nM; in assay [3] (setting [8]), greater than 10100 nM; in assay [4] (setting [9]), 0.161 nM.

Consider `CC[C@H](C)[C@H](NC(=O)[C@H](CC(C)C)NC(=O)[C@](C)(Cc1ccc(O)cc1)NC(=O)[C@@H](CCC(=O)O)NC(=O)[C@@H](NC(=O)[C@H](Cc1ccccc1)NC(=O)[C@H](CCC(=O)O)NC(=O)C(C)(C)NC(=O)[C@H](CCC(N)=O)NC(=O)[C@H](C)NC(=O)[C@H](CCCCNC(=O)[C@@H](N)CCCCNC(=O)[C@@H](N)CCCCNC(=O)CC[C@H](NC(=O)CCCCCCCCCCCCC(=O)O)C(=O)O)NC(=O)[C@H](CCCN)NC(=O)[C@H](CC(=O)O)NC(=O)[C@H](CC(C)C)NC(=O)[C@](C)(CC(C)C)NC(=O)[C@@H](NC(=O)[C@H](CO)NC(=O)[C@H](Cc1ccncc1)NC(=O)[C@H](CC(=O)O)NC(=O)[C@H](CO)NC(=O)[C@@H](NC(=O)[C@](C)(Cc1ccccc1F)NC(=O)[C@@H](NC(=O)CNC(=O)[C@H](CCC(=O)O)NC(=O)C(C)(C)NC(=O)[C@@H](N)Cc1ccc(O)cc1)[C@@H](C)O)[C@@H](C)O)[C@@H](C)CC)[C@@H](C)CC)C(=O)N[C@@H](CCC(=O)O)C(=O)NCC(=O)NCC(=O)N[C@@H](CCCCNC(=O)[C@@H](N)CCCCNC(=O)[C@@H](N)CCCCNC(=O)CC[C@H](NC(=O)CCCCCCCCCCCCC(=O)O)C(=O)O)C(=O)N[C@@H](CO)C(=O)N[C@@H](CO)C(=O)NCC(=O)N[C@@H](C)C(=O)N1CCC[C@H]1C(=O)N1CCC[C@H]1C(=O)N1CCC[C@H]1C(=O)N[C@@H](CO)C(N)=O` [Example 40], for which the Ki in assay [1] (human GIPR, geometric mean (SEM, n), read-out: Binding Affinity Ki, nM (SEM, n) hGIPR) was 0.163 nM. Further, the EC50 was 0.301 nM in assay [2] (0.1% bovine casein and 1.0% human serum albumin, 37° C., read-out: hGIPR EC50, nM (SEM, n)); 0.0116 nM in assay [2] (cAMP, incubated at 37° C., 0.1% bovine casein (no human serum albumin), read-out: hGIPR EC50, nM (SEM, n)); greater than 9950 nM in assay [3] (0.1% bovine casein and 1.0% human serum albumin, 37° C., geometric mean, read-out: hGCGR EC50, nM (SEM, n)); greater than 9950 nM in assay [3] (cAMP, incubated at 37° C., 0.1% bovine casein (no human serum albumin), geometric mean, read-out: hGCGR EC50, nM (SEM, n)); 6.69 nM in assay [4] (0.1% bovine casein and 1.0% human serum albumin, 37° C., read-out: hGLP-1R EC50, nM (SEM, n)); 0.279 nM in assay [4] (cAMP, incubated at 37° C., 0.1% bovine casein (no human serum albumin), read-out: hGLP-1R EC50, nM (SEM, n)).

As to `CC[C@H](C)[C@H](NC(=O)[C@H](CC(C)C)NC(=O)[C@](C)(Cc1ccc(O)cc1)NC(=O)[C@H](CCCCNC(=O)CCOCCOCCOCCOCCOCCOCCNC(=O)CC[C@H](NC(=O)CCCCCCCCCOc1ccc(C(=O)O)cc1)C(=O)O)NC(=O)[C@@H](NC(=O)[C@H](Cc1ccccc1)NC(=O)[C@H](CCCN)NC(=O)C(C)(C)NC(=O)[C@H](CCC(N)=O)NC(=O)[C@H](C)NC(=O)[C@H](CCC(N)=O)NC(=O)[C@H](CCCN)NC(=O)[C@H](CC(=O)O)NC(=O)[C@H](CC(C)C)NC(=O)[C@](C)(CC(C)C)NC(=O)[C@@H](NC(=O)C(C)(C)NC(=O)[C@H](Cc1ccncc1)NC(=O)[C@H](CC(=O)O)NC(=O)[C@H](CO)NC(=O)[C@@H](NC(=O)[C@](C)(Cc1ccccc1F)NC(=O)[C@@H](NC(=O)CNC(=O)[C@H](CCC(=O)O)NC(=O)C(C)(C)NC(=O)[C@@H](N)Cc1ccc(O)cc1)[C@@H](C)O)[C@@H](C)O)[C@@H](C)CC)[C@@H](C)CC)C(=O)N[C@@H](CCCCNC(=O)CCOCCOCCOCCOCCOCCOCCNC(=O)CC[C@H](NC(=O)CCCCCCCCCOc1ccc(C(=O)O)cc1)C(=O)O)C(=O)NCC(=O)NCC(=O)N1CCC[C@H]1C(=O)N[C@@H](CO)C(=O)N[C@@H](CO)C(=O)NCC(=O)N[C@@H](C)C(=O)N1CCC[C@H]1C(=O)N1CCC[C@H]1C(=O)N1CCC[C@H]1C(=O)N[C@@H](CO)C(N)=O` [Example 468], the pKi in assay [1] is 10.54. In addition, the Emax in assay [2] (setting [5]) amounted to 85.9%; in assay [2] (HEK293, read-out: hGIPR Emax, % ± SEM, cAMP, 37° C., 0.1% bovine casein, arithmetic mean) it was 97.1%; in assay [4], 109%. Also, the EC50 in assay [2] (setting [6]) is 0.00991 nM; in assay [3] (setting [7]) it was greater than 10100 nM; in assay [3] (setting [8]) it was greater than 10100 nM; in assay [4] (setting [9]) it was 0.168 nM.

In turn, `CC[C@H](C)[C@H](NC(=O)[C@H](CC(C)C)NC(=O)[C@](C)(Cc1ccc(O)cc1)NC(=O)[C@H](CCCCNC(=O)COCCOCCNC(=O)COCCOCCNC(=O)CC[C@H](NC(=O)CCCCCCCCCOc1ccc(C(=O)O)cc1)C(=O)O)NC(=O)[C@@H](NC(=O)[C@H](Cc1ccccc1)NC(=O)[C@H](CCCN)NC(=O)C(C)(C)NC(=O)[C@H](CCC(N)=O)NC(=O)[C@H](C)NC(=O)[C@H](CCC(N)=O)NC(=O)[C@H](CCCN)NC(=O)[C@H](CC(=O)O)NC(=O)[C@H](CC(C)C)NC(=O)[C@](C)(CC(C)C)NC(=O)[C@@H](NC(=O)C(C)(C)NC(=O)[C@H](Cc1ccc(O)cc1)NC(=O)[C@H](CC(=O)O)NC(=O)[C@H](CO)NC(=O)[C@@H](NC(=O)[C@](C)(Cc1ccccc1F)NC(=O)[C@@H](NC(=O)CNC(=O)[C@H](CCC(=O)O)NC(=O)C(C)(C)NC(=O)[C@@H](N)Cc1ccc(O)cc1)[C@@H](C)O)[C@@H](C)O)[C@@H](C)CC)[C@@H](C)CC)C(=O)N[C@@H](CCCCNC(=O)COCCOCCNC(=O)COCCOCCNC(=O)CC[C@H](NC(=O)CCCCCCCCCOc1ccc(C(=O)O)cc1)C(=O)O)C(=O)NCC(=O)NCC(=O)N1CCC[C@H]1C(=O)N[C@@H](CO)C(=O)N[C@@H](CO)C(=O)NCC(=O)N[C@@H](C)C(=O)N1CCC[C@H]1C(=O)N1CCC[C@H]1C(=O)N1CCC[C@H]1C(=O)N[C@@H](CO)C(N)=O` [Example 492] showed a pKi in assay [1] of 10.58. In addition, the Emax turned out to be 88.7% in assay [2] (setting [5]) and 117% in assay [4]. Also, the EC50 is 0.0125 nM in assay [2] (setting [6]), greater than 9950 nM in assay [3] (setting [7]), greater than 9950 nM in assay [3] (setting [8]) and 0.143 nM in assay [4] (setting [9]).
